Residues, ends and D or L forms follow the SMILES beside them. *: point of attachment. Cbz = O=C(OCc1ccccc1)*
Test system: H2B
Assay: Western blotting of H2B degradation, HeLa cells
Type: cell-based

SMILES	effect on H2B degradation by Tz-MitoFlag (100 μM, 24 h) and TP2T (10 nM, 24 h) (coincubated or pretreated with MG132 10 μM)	effect on H2B degradation by Tz-MitoFlag (100 μM, 24 h) and TP2T (10 nM, 24 h) (coincubated or pretreated with Thalidomide 10 μM)
CC(C)C[C@@H](C=O)NC(=O)[C@H](CC(C)C)NC(=O)[C@H](CC(C)C)NC(=O)OCc1ccccc1 [MG132] (Cbz-Leu-Leu-Leu-aldehyde)	no degradation of H2B	–
O=C1CCC(N2C(=O)c3ccccc3C2=O)C(=O)N1 (centres unmarked) [Thalidomide, thalidomide]	–	inhibited

From publication PMC12217469 (Nature Communications, 2025)
